In general, IC50 refers to the point on the concentration scale where inhibition reaches its midpoint. By inhibition is commonly meant the percentage by which the read-out fell short of the control.

Consider seven molecules from paper PMC6664820, “Novel natural and synthetic inhibitors of solute carriers SGLT1 and SGLT2” (Pharmacology Research & Perspectives, 2019).

Data set [1] addresses T1, SGLT1 (Homo sapiens, UniProt P13866).
T1 sequence (P13866 1-664): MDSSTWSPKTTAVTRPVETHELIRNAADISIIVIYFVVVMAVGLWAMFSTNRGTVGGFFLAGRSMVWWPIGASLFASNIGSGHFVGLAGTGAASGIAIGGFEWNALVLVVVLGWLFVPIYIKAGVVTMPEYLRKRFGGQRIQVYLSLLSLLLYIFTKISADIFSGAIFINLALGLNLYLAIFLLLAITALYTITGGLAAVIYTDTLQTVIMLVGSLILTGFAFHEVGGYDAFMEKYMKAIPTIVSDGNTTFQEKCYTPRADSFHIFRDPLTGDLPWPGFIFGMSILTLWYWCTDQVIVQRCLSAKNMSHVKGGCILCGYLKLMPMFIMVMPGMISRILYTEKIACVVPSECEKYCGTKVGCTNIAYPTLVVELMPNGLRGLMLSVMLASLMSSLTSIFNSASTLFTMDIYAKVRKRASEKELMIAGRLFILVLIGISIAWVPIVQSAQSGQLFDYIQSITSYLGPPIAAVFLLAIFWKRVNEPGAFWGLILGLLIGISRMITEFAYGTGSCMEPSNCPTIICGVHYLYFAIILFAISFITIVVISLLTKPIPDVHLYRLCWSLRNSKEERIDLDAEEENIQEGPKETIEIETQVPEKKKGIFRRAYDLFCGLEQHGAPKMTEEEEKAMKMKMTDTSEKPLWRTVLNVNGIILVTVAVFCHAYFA
Description: SGLT1 inhibition assay for validation of screening hits and similar compounds (1‐NBD‐glucose uptake, CHO‐hSGLT1 cells). Format: cell-based. To be noted: for IC50: 1‐NBD‐glucose uptake, CHO‐hSGLT1, mean of n biological replicates, or individual measurements where n=2, read-out: SGLT1‐IC50 Mean; for inhibition at 50 µM: mean inhibition with 50 μmol/L inhibitor, read-out: SGLT1 inhibition; for SGLT1/2 inhibition stated in words: SGLT1 and/or SGLT2, discussion statements; for remaining activity at 5 µM / remaining activity at 50 µM: 0.5 h, mean, concentration not given, read-out: NORMALIZED SGLT1 ACTIVITY (%).

The target of data set [2] is T1, SGLT1. Description: Cellular uptake and transcellular transport of 14C‐α‐methylglucose by Caco‐2 cell monolayers. The class given is cell-based. Also noted: Caco‐2 cells expressing endogenous SGLT1; host or cells: Caco-2. The following applies: 90 minutes. As to the method:
Caco‐2 cells (passage numbers 7 and 13) were seeded (29,700 cells) onto polycarbonate Transwell® inserts (6.5 mm diameter and 3.0 μm pores) and cultured for 21‐24 days to obtain differentiated polarized monolayers. Apical and basal medium was refreshed twice a week and the final medium refresh was done the day before the uptake and transport experiment. TransEpithelial Electrical Resistance (TEER) was measured with an EVOM^2 epithelial voltmeter (World Precision Instruments, Sarasota, USA) and inserts were used if TEER > 3000 Ω/cm^2. First, cells were washed twice apically and basally with D‐glucose free DMEM. Then, 100 μL (+)‐pteryxin dilutions (50 μmol/L and 500 μmol/L), P p.‐extract dilutions (1/200 and 1/2000), or 0.5% (v/v) DMSO vehicle control were applied apical in D‐glucose free DMEM with 0.3% (w/v) BSA and 40 nCi/mL ^14C‐α‐methylglucose. The basal acceptor wells (24‐well) contained 350 μL D‐glucose free DMEM with 0.3% (w/v) BSA. Then, cells were incubated in a humidified incubator at 37°C with 5% CO2 for 90 minutes. Inserts were transferred to a clean 24‐well plate and washed once with DMEM (with D‐glucose) and once with HBSS, with 1 mL at the basal and 100 μL at the apical side. Cells were lysed with 100 μL of 0.2 mol/L NaOH for 30 minutes at 37°C and lysates were analyzed by liquid scintillation counting on a Tri‐Carb 2910 TR (Perkin Elmer, Groningen, The Netherlands) to determine cellular ^14C‐α‐methylglucose uptake. Basal media were analyzed accordingly to determine transcellular ^14C‐α‐methylglucose transport. Mean ± SD ^14C‐α‐methylglucose uptake and transport were calculated from two biological replicates, each consisting of four technical replicates.

In data set [3] the target is T2, hSGLT2 (Homo sapiens, UniProt P31639).
T2 sequence (P31639 1-672): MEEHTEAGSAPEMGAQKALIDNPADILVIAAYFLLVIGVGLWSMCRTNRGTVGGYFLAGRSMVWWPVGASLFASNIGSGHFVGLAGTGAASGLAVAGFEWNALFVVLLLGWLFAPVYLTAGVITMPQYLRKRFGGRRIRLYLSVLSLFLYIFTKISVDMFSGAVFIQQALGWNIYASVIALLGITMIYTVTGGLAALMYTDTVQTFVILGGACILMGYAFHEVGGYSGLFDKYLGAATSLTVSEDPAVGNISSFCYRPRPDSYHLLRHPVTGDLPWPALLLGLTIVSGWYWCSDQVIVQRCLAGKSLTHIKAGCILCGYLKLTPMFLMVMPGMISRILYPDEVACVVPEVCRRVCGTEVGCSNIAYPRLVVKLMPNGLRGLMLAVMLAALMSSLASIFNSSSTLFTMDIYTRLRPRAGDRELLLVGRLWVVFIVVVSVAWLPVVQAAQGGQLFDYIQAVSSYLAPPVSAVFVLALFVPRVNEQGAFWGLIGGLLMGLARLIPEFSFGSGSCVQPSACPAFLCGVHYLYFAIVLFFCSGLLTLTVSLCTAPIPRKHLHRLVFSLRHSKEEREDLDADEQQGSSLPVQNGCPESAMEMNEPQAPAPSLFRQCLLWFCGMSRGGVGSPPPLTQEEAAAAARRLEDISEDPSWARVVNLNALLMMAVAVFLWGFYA
The experiment in a line: SGLT2 inhibition assay for validation of screening hits and similar compounds (1‐NBD‐glucose uptake, CHO‐hSGLT2 cells). Format: cell-based. To be noted: for IC50: 1‐NBD‐glucose uptake, CHO‐hSGLT2, mean of n biological replicates, or individual measurements where n=2, read-out: SGLT2‐IC50 Mean; for inhibition at 50 µM: mean inhibition with 50 μmol/L inhibitor; for remaining activity at 5 µM / remaining activity at 50 µM: 0.5 h, mean, concentration not given, read-out: NORMALIZED SGLT2 ACTIVITY (%).

For data set [4], the system named is transporters. On the set-up: method as in earlier work. The following applies: known transporter targets, per category of inhibited transporters; cited from earlier work.
Data set [5] addresses T2, hSGLT2. Description: cell-based. On the set-up: host or cells: CHO-K1. The following applies: CHO, read-out: % of control remaining.
Data set [6] deals with T1, SGLT1. Description: cell-based. On the set-up: host or cells: CHO-K1. To be noted: CHO, read-out: % of control remaining.
Data set [7] relates to CHO‐hSGLT1/2 cells. The experiment in a line: Cytotoxicity assay (ToxiLight, adenylate kinase leakage into CHO‐SGLT1/2 inhibition assay media).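 Also: bioluminescent read-out of adenylate kinase released from lysed cells into the medium, given relative to DMSO vehicle control defined as 0%, higher meaning more cytolysis; percent of DMSO vehicle control bioluminescence with vehicle set at 0%.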 Also noted: CYTOTOXICITY / CY[…], mean / CYTOTOXICITY (% of vehicle control) Mean / CYTOTOXICITY, mean / CY[…] (% of vehicle control) Mean: dose or concentration left out as unconfirmed. To be noted: mean.
Description: The cytotoxicity of representative SGLT1/2 inhibitors and compounds from the different chemical clusters was tested. Cytotoxicity was determined using the ToxiLight bioassay kit according to the supplier's instructions. This nondestructive assay measures leakage of the enzyme adenylate kinase (AK) from damaged cells into the CHO‐SGLT1/2 inhibition assay media, ie the degree of cytolysis. […] Next, bioluminescence was measured using a FlexStation 3 Multi‐Mode Microplate Reader (Molecular Devices) by 1 second integrated reading. Cytotoxicity was expressed as the percentage of bioluminescence of the DMSO vehicle control which was set at 0%. If applicable, statistical outliers were determined using Grubbs’ test (alpha = 0.05) and excluded for calculation of the mean ± SD.

Entries after “also recorded” stand apart in the source; their conditions may differ.

As for `CC=C(C)C(=O)OC1c2c(ccc3ccc(=O)oc23)OC(C)(C)C1OC(C)=O` (stereo not drawn) [(+)‐pteryxin], in data set [1], the half-maximal inhibitory concentration (IC50) came to 12 µM and the inhibition at 50 µM came out at 89%. In data set [2] (Caco‐2, 50 μmol/L), the “Inhibition of 14C‐α‐methylglucose cellular uptake” value came to 18% and the “Inhibition of transcellular transport of 14C‐α‐methylglucose” value is listed as 37%. Also, in data set [2] (Caco‐2, 500 μmol/L), the “Inhibition of 14C‐α‐methylglucose cellular uptake” value came to 91% and the “Inhibition of transcellular transport of 14C‐α‐methylglucose” value is on record as 89%. Besides, the IC50 in data set [3] is 9 µM.
For the molecule `CC(C)COCC(CN(Cc1ccccc1)c1ccccc1)N1CCCC1` (centres unmarked) [Bepridil, bepridil, reference compound], in data set [1], the IC50 came to 10 µM, the “SGLT1/2 inhibition stated in words” value is given as “showed SGLT1/2 inhibition” and the inhibition at 50 µM was found to be 74%. Besides, in data set [4], the “INHIBITED TRANSPORTERS” value was “CACNA1A, CACNA1H, CACNA2D2, KCNH2, KCNQ1, KCNH2”. In data set [3], the IC50 was 14 µM and the inhibition at 50 µM stood at 70%.
For the molecule `CCCCN1CCCCC1C(=O)Nc1c(C)cccc1C` (centres unmarked) [Bupivacaine, bupivacaine, reference compound], in data set [1], the IC50 is 23 µM, the “SGLT1/2 inhibition stated in words” value is reported as “novel SGLT1/2 inhibitors” and the inhibition at 50 µM is 64%. In data set [4], the “INHIBITED TRANSPORTERS” value was “SCN10A”. Besides, the IC50 in data set [3] was 43 µM.
For the molecule `C[C@@H]1O[C@@H](O[C@H]2[C@H](O[C@H]3CC[C@@]4(C)[C@@H](CC[C@]5(C)[C@@H]4CC=C4[C@@H]6CC(C)(C)CC[C@]6(C(=O)O[C@@H]6O[C@H](CO[C@@H]7O[C@H](CO)[C@@H](O[C@@H]8O[C@@H](C)[C@H](O)[C@@H](O)[C@H]8O)[C@H](O)[C@H]7O)[C@@H](O)[C@H](O)[C@H]6O)CC[C@]45C)[C@]3(C)CO)OC[C@H](O)[C@@H]2O)[C@H](O)[C@H](O)[C@H]1O` [Hederacoside C], the remaining activity at 5 µM in data set [5] amounted to 113%; in data set [6], 97.9%. Besides, the remaining activity at 50 µM came to 115% in data set [5] and 102% in data set [6]. Also, the CYTOTOXICITY in data set [7] is given as -28.
Take `C=C[C@H]1C[N@@]2CC[C@H]1C[C@@H]2[C@@H](O)c1ccnc2ccc(OC)cc12` [Quinidine, quinidine, reference compound]: in data set [1], the IC50 was found to be 62 µM, the remaining activity at 5 µM turned out to be 93%, the remaining activity at 50 µM is 50% and the inhibition at 50 µM stood at 50%. Moreover, the “INHIBITED TRANSPORTERS” value in data set [4] is on record as “SLC22A1, SLC22A2, SLC22A5, SLCO1A2, SLC22A4; also recorded: SLC22A8, SLCO1B1”. In data set [3], the IC50 amounted to 56 µM, the remaining activity at 5 µM worked out at 92%, the remaining activity at 50 µM was 51% and at 50 µM the inhibition was 49%.
Turning to `CC(=O)OC[C@H]1O[C@@H](O[C@@H]2[C@@H](O)[C@H](O[C@@H]3[C@H](O)C(C)(C)C[C@H]4C5=CC[C@@H]6[C@@]7(C)CC[C@H](O[C@@H]8O[C@H](C(=O)O)[C@@H](O)[C@H](O)[C@H]8O[C@@H]8O[C@H](CO)[C@H](O)[C@H](O)[C@H]8O[C@@H]8O[C@H](CO)[C@@H](O)[C@H](O)[C@H]8O)[C@](C)(CO)[C@@H]7CC[C@@]6(C)[C@]5(C)CC[C@@]34C)OC[C@@H]2O)[C@H](OC(C)=O)[C@@H](OC(C)=O)[C@@H]1OC(C)=O` [Soyasaponin Ab], in data set [5], the remaining activity at 5 µM worked out at 106% and the remaining activity at 50 µM was 96.8%. In data set [6], the remaining activity at 5 µM was found to be 104% and the remaining activity at 50 µM worked out at 104%. In addition, in data set [7], the CYTOTOXICITY stood at 5.
On to `C=C[C@H]1C[N@@]2CC[C@H]1C[C@H]2[C@H](O)c1ccnc2ccc(OC)cc12` [quinine, reference compound], for which, in data set [1], the remaining activity at 5 µM is 101%, the remaining activity at 50 µM came to 76% and the inhibition at 50 µM stood at 24%. The “INHIBITED TRANSPORTERS” value in data set [4] is recorded as “SLC22A1, SLC22A2, SLC22A5, SLCO1A2, SLC22A4”. Besides, in data set [3], the remaining activity at 5 µM is 92%, the remaining activity at 50 µM is 66% and 50 µM produced 34% inhibition.
